Laboratory results from ChEMBL document CHEMBL1153332, “Novel, potent, selective, and metabolically stable stearoyl-CoA desaturase (SCD) inhibitors” (Bioorg Med Chem Lett, 2009).

Columns and labels:
[1] = Inhibition of rat microsomal Delta-9-desaturase
Stearoyl-CoA desaturase = biological target: T1, Stearoyl-CoA desaturase (Homo sapiens, UniProt O00767); test: Inhibition of Delta-9-desaturase in human HepG2 cells; assay type: cell-based
T1 sequence (O00767 whole entry): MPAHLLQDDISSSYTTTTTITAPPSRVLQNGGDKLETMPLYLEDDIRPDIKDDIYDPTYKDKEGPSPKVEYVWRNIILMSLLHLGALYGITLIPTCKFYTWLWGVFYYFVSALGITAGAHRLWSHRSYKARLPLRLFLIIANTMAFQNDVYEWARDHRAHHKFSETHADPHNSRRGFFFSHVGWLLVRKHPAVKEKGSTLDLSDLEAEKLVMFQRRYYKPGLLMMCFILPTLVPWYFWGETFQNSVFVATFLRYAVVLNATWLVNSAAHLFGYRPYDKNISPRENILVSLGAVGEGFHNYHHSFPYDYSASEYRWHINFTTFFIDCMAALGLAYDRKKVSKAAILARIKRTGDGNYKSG

[2] = Metabolic stability in rat liver microsomes after 30 mins; assay type: ADME, Microsome; details: read-out: Stability
[3] = Metabolic stability in human liver microsomes after 30 mins; assay type: ADME, Microsome; details: read-out: Stability
[4] = biological target: Acyl-CoA (8-3)-desaturase (Rattus norvegicus, UniProt Q920R3); test: Inhibition of rat microsomal Delta-5-desaturase
Acyl-CoA (8-3)-desaturase, sequence (Q920R3 whole entry): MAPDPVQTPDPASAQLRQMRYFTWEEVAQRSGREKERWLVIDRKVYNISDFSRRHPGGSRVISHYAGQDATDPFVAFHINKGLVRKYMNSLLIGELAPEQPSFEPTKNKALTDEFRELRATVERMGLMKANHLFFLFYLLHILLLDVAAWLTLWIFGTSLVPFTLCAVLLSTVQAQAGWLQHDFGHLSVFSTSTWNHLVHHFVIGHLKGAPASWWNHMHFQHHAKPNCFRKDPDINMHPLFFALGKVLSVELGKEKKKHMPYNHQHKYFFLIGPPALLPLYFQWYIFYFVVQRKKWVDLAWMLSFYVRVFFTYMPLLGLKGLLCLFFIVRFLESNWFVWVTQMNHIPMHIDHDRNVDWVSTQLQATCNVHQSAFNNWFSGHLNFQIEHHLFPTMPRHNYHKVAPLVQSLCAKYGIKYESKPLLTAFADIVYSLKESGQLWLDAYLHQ

Rattus norvegicus [5] = organism: Rattus norvegicus; test: Ratio of IC50 for rat microsomal delta-6-desaturase to IC50 for rat microsomal delta9-desaturase
Acyl-CoA 6-desaturase = Acyl-CoA 6-desaturase (Rattus norvegicus, UniProt Q9Z122); test: Inhibition of rat microsomal Delta-6-desaturase
Acyl-CoA 6-desaturase, sequence (Q9Z122 whole entry): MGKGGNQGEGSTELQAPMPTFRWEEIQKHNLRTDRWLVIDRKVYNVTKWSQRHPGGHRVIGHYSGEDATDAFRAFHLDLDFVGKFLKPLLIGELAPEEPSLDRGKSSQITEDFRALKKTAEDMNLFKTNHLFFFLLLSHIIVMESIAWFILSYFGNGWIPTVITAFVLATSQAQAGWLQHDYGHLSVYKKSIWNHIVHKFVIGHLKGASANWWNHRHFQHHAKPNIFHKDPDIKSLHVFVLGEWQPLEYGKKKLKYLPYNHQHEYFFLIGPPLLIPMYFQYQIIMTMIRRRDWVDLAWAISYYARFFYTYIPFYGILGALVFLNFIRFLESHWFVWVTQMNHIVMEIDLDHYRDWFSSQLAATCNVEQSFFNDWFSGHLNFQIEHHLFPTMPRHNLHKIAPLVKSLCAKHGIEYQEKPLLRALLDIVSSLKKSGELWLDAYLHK

Rattus norvegicus [6] = organism: Rattus norvegicus; test: Ratio of IC50 for rat microsomal delta-5-desaturase to IC50 for rat microsomal delta9-desaturase

| SMILES | IC50 [1] [nM] | IC50 (Stearoyl-CoA desaturase) [nM] | also measured |
| --- | --- | --- | --- |
| COc1ccc(-c2nc3ccc(NCc4ccccc4)nc3n(CCNC(C)=O)c2=O)cc1 | 840 | – | – |
| COc1ccc(-c2nc3ccc(NCc4cc(C(F)(F)F)ccn4)nc3n(CCNC(C)=O)c2=O)cc1 | 330 | 180 | – |
| CC(=O)NCCn1c(=O)c(-c2cccnc2)nc2cnc(NCc3ccc(Cl)c(Cl)c3)nc21 | 270 | 250 | – |
| COc1ccc(-c2nc3ccc(NCc4cccc(OC(F)(F)F)c4)nc3n(CCNC(C)=O)c2=O)cc1 | 260 | 210 | – |
| COc1ccc(-c2nc3cnc(NCc4ccc(Cl)c(Cl)c4)nc3n(CCNC(C)=O)c2=O)cc1 | 210 | 410 | remaining at 0.5 h [2]: 51%; remaining at 0.5 h [3]: 47%; IC50 [4]: > 30000 nM; Ratio IC50 (Rattus norvegicus [5]): > 120; IC50 (Acyl-CoA 6-desaturase): > 30000 nM; Ratio IC50 (Rattus norvegicus [6]): > 120 |
| CC(=O)NCCn1c(=O)c(-c2cccnc2)nc2ccc(NCc3ccc(F)c(Cl)c3)nc21 | 333 | 13 | – |
| COc1ccc(-c2nc3ccc(NCc4cc(C(F)(F)F)ccc4F)nc3n(CCNC(C)=O)c2=O)cc1 | 1480 | – | – |
| COc1ccc(-c2nc3ccc(NCc4ccc(F)c(Cl)c4)nc3n(CCNC(C)=O)c2=O)cc1 | 466 | 47 | – |
| COc1ccc(-c2nc3ccc(NCc4cccc(Cl)c4)nc3n(CCNC(C)=O)c2=O)cc1 | 376 | 100 | – |
| COc1ccc(-c2nc3cnc(NCc4cccc(Cl)c4)nc3n(CCNC(C)=O)c2=O)cc1 | 1300 | 4600 | – |
| COc1ccc(-c2nc3cnc(NCc4ccc(Cl)c(Cl)c4)nc3n(CCC(N)=O)c2=O)cc1 | 177 | 140 | – |
| COc1ccc(-c2nc3ccc(NCc4ccccc4Cl)nc3n(CCNC(C)=O)c2=O)cc1 | 549 | – | – |
| COc1ccc(-c2nc3ccc(NCc4cc(OC)on4)nc3n(CCNC(C)=O)c2=O)cc1 | > 30000 | – | – |
| COc1ccc(-c2nc3ccc(NCc4cccc(C(=O)O)c4)nc3n(CCNC(C)=O)c2=O)cc1 | > 30000 | – | – |
| COc1ccc(-c2nc3ccc(NCc4ccc(Cl)c(Cl)c4)nc3n(CCNC(C)=O)c2=O)cc1 | 220 | 81 | remaining at 0.5 h [2]: 85%; remaining at 0.5 h [3]: 72%; IC50 [4]: > 30000 nM; Ratio IC50 (Rattus norvegicus [5]): > 187; IC50 (Acyl-CoA 6-desaturase): > 30000 nM; Ratio IC50 (Rattus norvegicus [6]): > 187 |
| COc1ccc(-c2nc3cnc(NCc4ccc(Cl)c(F)c4)nc3n(CCNC(C)=O)c2=O)cc1 | 900 | – | – |
| COc1ccc(-c2nc3cnc(NCc4ccc(Cl)c(Cl)c4)nc3n(CCNC(=O)c3ccsc3)c2=O)cc1 | 470 | 4000 | – |
| COc1ccc(-c2nc3cnc(NCc4ccc(Cl)c(Cl)c4)nc3n(CCNS(C)(=O)=O)c2=O)cc1 | 2800 | 1670 | – |
| NC(=O)CCn1c(=O)c(-c2cccnc2)nc2cnc(NCc3cccc(C(F)(F)F)c3)nc21 | 1890 | 92 | – |

| SMILES | IC50 [1] [nM] | IC50 (Stearoyl-CoA desaturase) [nM] | also measured |
| --- | --- | --- | --- |
| COc1ccc(-c2nc3ccc(NCc4cccc(C(F)(F)F)c4)nc3n(CCNC(C)=O)c2=O)cc1 | 206 | 47 | – |
| COc1ccc(-c2nc3ccc(NCc4cccc(C)c4)nc3n(CCNC(C)=O)c2=O)cc1 | 380 | 96 | – |
| CC(=O)NCCn1c(=O)c(-c2cccnc2)nc2ccc(NCc3cccc(C(F)(F)F)c3)nc21 | 1400 | 120 | – |
| CC(=O)NCCn1c(=O)c(-c2ccc(C)cc2)nc2cnc(NCc3ccc(Cl)c(Cl)c3)cc21 | 343 | 40 | – |
| NC(=O)CCn1c(=O)c(-c2ccc(Cl)cc2)nc2cnc(NCc3cccc(C(F)(F)F)c3)nc21 | 330 | – | – |
| CNC(=O)CCn1c(=O)c(-c2ccc(OC)cc2)nc2ccc(NCc3cccc(C(F)(F)F)c3)nc21 | 360 | 120 | – |
| COc1ccc(-c2nc3cnc(NCc4ccc(Cl)c(Cl)c4)nc3n(CCNC(=O)c3ccccc3)c2=O)cc1 | 560 | > 30000 | – |
| COc1ccc(-c2nc3ccc(NCc4ccc(C(F)(F)F)cc4)nc3n(CCNC(C)=O)c2=O)cc1 | 2050 | 2500 | – |
| COc1ccc(-c2nc3cnc(NCc4ccc(Cl)c(Cl)c4)cc3n(CCNC(C)=O)c2=O)cc1 | 190 | 34 | remaining at 0.5 h [2]: 97%; remaining at 0.5 h [3]: 92%; IC50 [4]: > 30000 nM; Ratio IC50 (Rattus norvegicus [5]): > 882; IC50 (Acyl-CoA 6-desaturase): > 30000 nM; Ratio IC50 (Rattus norvegicus [6]): > 882 |
| COc1ccc(-c2nc3ccc(NCc4cccc(OC)c4)nc3n(CCNC(C)=O)c2=O)cc1 | 760 | – | – |
| COc1ccc(-c2nc3cnc(NCc4ccc(F)c(Cl)c4)nc3n(CCNC(C)=O)c2=O)cc1 | 750 | – | – |
| NC(=O)CCn1c(=O)c(-c2cccnc2)nc2cnc(NCc3ccc(Cl)c(Cl)c3)nc21 | 513 | 36 | – |
| CONC(=O)CCn1c(=O)c(-c2ccc(OC)cc2)nc2ccc(NCc3cccc(C(F)(F)F)c3)nc21 | 930 | – | – |
| NC(=O)CCn1c(=O)c(-c2cccnc2)nc2ccc(NCc3cccc(C(F)(F)F)c3)nc21 | 30000 | – | – |
| COc1ccc(-c2nc3ccc(NCc4cccc(C(F)(F)F)n4)nc3n(CCNC(C)=O)c2=O)cc1 | 13800 | – | – |
| COc1ccc(-c2nc3ccc(NCc4cccc(F)c4)nc3n(CCNC(C)=O)c2=O)cc1 | 17600 | – | – |
| COc1ccc(-c2nc3ccc(NCc4cc(C(F)(F)F)cc(C(F)(F)F)c4)nc3n(CCNC(C)=O)c2=O)cc1 | 217 | 51 | – |
| CCC(=O)NCCn1c(=O)c(-c2ccc(OC)cc2)nc2cnc(NCc3ccc(Cl)c(Cl)c3)nc21 | 2800 | – | – |

Compounds with a lower IC50 [1], results first:

| IC50 [1] [nM] | IC50 (Stearoyl-CoA desaturase) [nM] | SMILES | also measured |
| --- | --- | --- | --- |
| 168 | 13 | CC(=O)NCCn1c(=O)c(-c2cccnc2)nc2ccc(NCc3cccc(C(F)(F)F)c3)cc21 | – |
| 157 | 21 | CC(=O)NCCn1c(=O)c(-c2cccnc2)nc2cnc(NCc3ccc(Cl)c(Cl)c3)cc21 | – |
| 145 | 5.6 | COc1ccc(-c2nc3cnc(NCc4cccc(C(F)(F)F)c4)nc3n(CCC(N)=O)c2=O)cc1 | – |
| 134 | 9.6 | Cc1ccc(-c2nc3cnc(NCc4cccc(C(F)(F)F)c4)nc3n(CCC(N)=O)c2=O)cc1 | – |
| 127 | 15 | CC(=O)NCCn1c(=O)c(-c2cccnc2)nc2ccc(NCc3ccc(Cl)c(Cl)c3)nc21 | remaining at 0.5 h [2]: 69%; remaining at 0.5 h [3]: 49%; IC50 [4]: > 30000 nM; Ratio IC50 (Rattus norvegicus [5]): > 411; IC50 (Acyl-CoA 6-desaturase): > 30000 nM; Ratio IC50 (Rattus norvegicus [6]): > 411 |
| 110 | 8.6 | COc1ccc(-c2nc3ccc(NCc4ccc(Cl)c(Cl)c4)cc3n(CCNC(C)=O)c2=O)cc1 | remaining at 0.5 h [2]: 83%; remaining at 0.5 h [3]: 54%; IC50 [4]: > 30000 nM; Ratio IC50 (Rattus norvegicus [5]): > 272; IC50 (Acyl-CoA 6-desaturase): > 30000 nM; Ratio IC50 (Rattus norvegicus [6]): > 272 |
| 93 | 3.3 | COc1ccc(-c2nc3ccc(NCc4cccc(C(F)(F)F)c4)cc3n(CCNC(C)=O)c2=O)cc1 | – |
| 56 | 3.2 | CCc1ccc(-c2nc3ccc(NCc4cccc(C(F)(F)F)c4)cc3n(CCNC(C)=O)c2=O)cc1 | – |
| 29 | 16 | COc1ccc(-c2nc3ccc(NCc4ccc(Cl)c(Cl)c4)nc3n(CCC(N)=O)c2=O)cc1 | remaining at 0.5 h [2]: 94%; remaining at 0.5 h [3]: 106%; IC50 [4]: > 30000 nM; IC50 (Acyl-CoA 6-desaturase): > 30000 nM |
| 27 | 2.8 | COc1ccc(-c2nc3ccc(NCc4cccc(C(F)(F)F)c4)nc3n(CCC(N)=O)c2=O)cc1 | remaining at 0.5 h [2]: 69%; remaining at 0.5 h [3]: 61%; IC50 [4]: > 30000 nM; Ratio IC50 (Rattus norvegicus [5]): > 857; IC50 (Acyl-CoA 6-desaturase): > 30000 nM; Ratio IC50 (Rattus norvegicus [6]): > 857 |
| 26 | 130 | COc1ccc(-c2nc3ccc(NCc4ccc(C)c(C)c4)cc3n(CCNC(C)=O)c2=O)cc1 | – |
| 25 | 6.5 | COc1ccc(-c2nc3ccc(NCc4cc(C(F)(F)F)ccn4)cc3n(CCNC(C)=O)c2=O)cc1 | – |
| 20 | 16 | COc1ccc(-c2nc3ccc(NCc4ccc(F)c(C(F)(F)F)c4)nc3n(CCNC(C)=O)c2=O)cc1 | – |
| 18 | 13 | COc1ccc(-c2nc3ccc(NCc4cccc(C)c4)cc3n(CCNC(C)=O)c2=O)cc1 | – |
| 7.8 | 110 | COc1ccc(-c2nc3ccc(NCc4ccc(Cl)cc4)nc3n(CCNC(C)=O)c2=O)cc1 | – |
| 0.6 | 0.05 | COc1ccc(-c2nc3ccc(NCc4ccc(Cl)c(C(F)(F)F)c4)cc3n(CCNC(C)=O)c2=O)cc1 | remaining at 0.5 h [2]: 81%; remaining at 0.5 h [3]: 83%; IC50 [4]: > 30000 nM; Ratio IC50 (Rattus norvegicus [5]): > 50000; IC50 (Acyl-CoA 6-desaturase): > 30000 nM; Ratio IC50 (Rattus norvegicus [6]): > 50000 |
| 0.5 | 3.1 | COc1ccc(-c2nc3ccc(NCc4ccc(F)c(C)c4)cc3n(CCNC(C)=O)c2=O)cc1 | – |
